Test results as given in patent publication US20260125374A1, “PI3K-ALPHA INHIBITORS AND METHODS OF MAKING AND USING THE SAME” (Relay Therapeutics, Inc., priority 2021, published 2026).

Assay: Grinding simulation experiments
Format: physicochemical
Procedure: About 50 mg of I-1 Form A was ground manually with a mortar and pestle for 1, 3 and 5 min. Form transformation and degree of crystallinity was evaluated by XRPD.
About 50 mg of Form A was ground manually with a mortar and pestle for 1, 3 and 5 min. Form transformation and degree of crystallinity was evaluated by XRPD.

**Q.** What does the source list for `N#Cc1c(-c2cc(NC(=O)c3cc(F)cc(C(F)(F)F)c3)c3c(c2)C(=O)N[C@H]3c2cc(F)ccc2Cl)ccc2ncnn12` [Compound I-1, (R)-N-(3-(2-chloro-5-fluorophenyl)-6-(5-cyano-[1,2,4]triazolo[1,5-a]pyridin-6-yl)-1-oxoisoindolin-4-yl)-3-fluoro-5-(trifluoromethyl)benzamide]?
**A.** XRPD peak intensity after dry grinding: slightly decreased; XRPD (Dry grinding for 1 min): No form and crystallinity change,; form change on grinding (XRPD) (mortar and pestle 1, 3 and 5 min): no form change
